Results from PubChem BioAssay AID2060905 (Molecular Pharmacology Branch, DTP, NCI, 2025).
Blank lines part the entries; values can stand above or below the compound they belong to.

Test system: 282377-053-R-J1-PDC complex spheroid viability
Test: Anticancer human tumor 282377-053-R-J1-PDC patient-derived colon adenocarcinoma cell line growth inhibition [RAS]
Settings: for IC50: curve of first compound; for viability, T/C: stronger effect = lower value
Procedure, shortened: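 Multi-cell-type spheroids: tumor cells plus HUVEC endothelial cells and mesenchymal stem cells. RAS-pathway inhibitors were combined with targeted agents, each dosed in half-log steps down from clinical Cmax, or from 10 microM when Cmax was unknown.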

[1] = second compound 0.000949 µM, first compound 0.0316 µM
[2] = second compound 0.000949 µM, first compound 0.1 µM
[3] = second compound 0.000949 µM, first compound 0.316 µM
[4] = second compound 0.000949 µM, first compound 1 µM
[5] = second compound 0.000949 µM, first compound 3.16 µM
[6] = second compound 0.000949 µM, first compound 10 µM
[7] = second compound 0.003 µM, first compound 0.0316 µM
[8] = second compound 0.003 µM, first compound 0.1 µM
[9] = second compound 0.003 µM, first compound 0.316 µM
[10] = second compound 0.003 µM, first compound 1 µM
[11] = second compound 0.003 µM, first compound 3.16 µM
[12] = second compound 0.003 µM, first compound 10 µM
[13] = second compound 0.00949 µM, first compound 0.0316 µM
[14] = second compound 0.00949 µM, first compound 0.1 µM
[15] = second compound 0.00949 µM, first compound 0.316 µM
[16] = second compound 0.00949 µM, first compound 1 µM
[17] = second compound 0.00949 µM, first compound 3.16 µM
[18] = second compound 0.00949 µM, first compound 10 µM
[19] = second compound 0.03 µM, first compound 0.0316 µM
[20] = second compound 0.03 µM, first compound 0.1 µM
[21] = second compound 0.03 µM, first compound 0.316 µM
[22] = second compound 0.03 µM, first compound 1 µM
[23] = second compound 0.03 µM, first compound 3.16 µM
[24] = second compound 0.03 µM, first compound 10 µM
[25] = second compound 0.0949 µM, first compound 0.0316 µM
[26] = second compound 0.0949 µM, first compound 0.1 µM
[27] = second compound 0.0949 µM, first compound 0.316 µM
[28] = second compound 0.0949 µM, first compound 1 µM
[29] = second compound 0.0949 µM, first compound 3.16 µM
[30] = second compound 0.0949 µM, first compound 10 µM
[31] = second compound 0.3 µM, first compound 0.0316 µM
[32] = second compound 0.3 µM, first compound 0.1 µM
[33] = second compound 0.3 µM, first compound 0.316 µM
[34] = second compound 0.3 µM, first compound 1 µM
[35] = second compound 0.3 µM, first compound 3.16 µM
[36] = second compound 0.3 µM, first compound 10 µM
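Note: spheroids exposed to agents for seven days before readout.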
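Throughout, for viability, T/C: luminescence viability as percent of DMSO vehicle control wells.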

IC50 (second compound 0.000949 µM): > 10 µM | IC50 (second compound 0.003 µM): > 10 µM | IC50 (second compound 0.00949 µM): > 10 µM | IC50 (second compound 0.03 µM): > 10 µM | IC50 (second compound 0.0949 µM): > 10 µM | IC50 (second compound 0.3 µM): > 10 µM
Structure (SMILES): CC(C)NCC(C(=O)N1CCN(c2ncnc3c2C(C)CC3O)CC1)c1ccc(Cl)cc1 (stereo not drawn) + CCn1c(-c2cccnc2C(C)OC)c2c3cc(ccc31)N1CCOC(CC(NC(=O)C(C(C)C)N(C)C(=O)C3(F)CCN(C(=O)C#CC(C)(C)N(C)C)CC3)C(=O)N3CCCC(N3)C(=O)OCC(C)(C)C2)C1
viability, T/C [1]: 96.4% | viability, T/C [2]: 99.7% | viability, T/C [3]: 109% | viability, T/C [4]: 89.7% | viability, T/C [5]: 78.3% | viability, T/C [6]: 70.6% | viability, T/C [7]: 104% | viability, T/C [8]: 96.5% | viability, T/C [9]: 91.9% | viability, T/C [10]: 82.2% | viability, T/C [11]: 79.5% | viability, T/C [12]: 78.2% | viability, T/C [13]: 114% | viability, T/C [14]: 93% | viability, T/C [15]: 90% | viability, T/C [16]: 88.8% | viability, T/C [17]: 82.5% | viability, T/C [18]: 74.5% | viability, T/C [19]: 104% | viability, T/C [20]: 111% | viability, T/C [21]: 81.3% | viability, T/C [22]: 103% | viability, T/C [23]: 69.8% | viability, T/C [24]: 88.1% | viability, T/C [25]: 88.4% | viability, T/C [26]: 94.4% | viability, T/C [27]: 127% | viability, T/C [28]: 90% | viability, T/C [29]: 72.5% | viability, T/C [30]: 67.8% | viability, T/C [31]: 105% | viability, T/C [32]: 112% | viability, T/C [33]: 94.8% | viability, T/C [34]: 92.7% | viability, T/C [35]: 77.3% | viability, T/C [36]: 80.7%

IC50 (second compound 0.000949 µM): > 0.1 µM | IC50 (second compound 0.003 µM): > 0.1 µM | IC50 (second compound 0.00949 µM): > 0.1 µM | IC50 (second compound 0.03 µM): > 0.1 µM | IC50 (second compound 0.0949 µM): > 0.1 µM | IC50 (second compound 0.3 µM): > 0.1 µM
Structure (SMILES): CC(C)n1nc(-c2ccc3oc(N)nc3c2)c2c(N)ncnc21 + CCn1c(-c2cccnc2C(C)OC)c2c3cc(ccc31)N1CCOC(CC(NC(=O)C(C(C)C)N(C)C(=O)C3(F)CCN(C(=O)C#CC(C)(C)N(C)C)CC3)C(=O)N3CCCC(N3)C(=O)OCC(C)(C)C2)C1
viability, T/C (second compound 0.000949 µM, first compound 0.000316 µM): 91.5% | viability, T/C (second compound 0.000949 µM, first compound 0.001 µM): 112% | viability, T/C (second compound 0.000949 µM, first compound 0.00316 µM): 87.1% | viability, T/C (second compound 0.000949 µM, first compound 0.01 µM): 76.9% | viability, T/C [1]: 65.7% | viability, T/C [2]: 59.7% | viability, T/C (second compound 0.003 µM, first compound 0.000316 µM): 84.5% | viability, T/C (second compound 0.003 µM, first compound 0.001 µM): 103% | viability, T/C (second compound 0.003 µM, first compound 0.00316 µM): 73.8% | viability, T/C (second compound 0.003 µM, first compound 0.01 µM): 73.6% | viability, T/C [7]: 75.3% | viability, T/C [8]: 70.1% | viability, T/C (second compound 0.00949 µM, first compound 0.000316 µM): 119% | viability, T/C (second compound 0.00949 µM, first compound 0.001 µM): 108% | viability, T/C (second compound 0.00949 µM, first compound 0.00316 µM): 98.5% | viability, T/C (second compound 0.00949 µM, first compound 0.01 µM): 80% | viability, T/C [13]: 67.8% | viability, T/C [14]: 59.1% | viability, T/C (second compound 0.03 µM, first compound 0.000316 µM): 110% | viability, T/C (second compound 0.03 µM, first compound 0.001 µM): 87.2% | viability, T/C (second compound 0.03 µM, first compound 0.00316 µM): 77.3% | viability, T/C (second compound 0.03 µM, first compound 0.01 µM): 86% | viability, T/C [19]: 66.9% | viability, T/C [20]: 50.2% | viability, T/C (second compound 0.0949 µM, first compound 0.000316 µM): 100% | viability, T/C (second compound 0.0949 µM, first compound 0.001 µM): 117% | viability, T/C (second compound 0.0949 µM, first compound 0.00316 µM): 86.9% | viability, T/C (second compound 0.0949 µM, first compound 0.01 µM): 75% | viability, T/C [25]: 68.1% | viability, T/C [26]: 48.5% | viability, T/C (second compound 0.3 µM, first compound 0.000316 µM): 107% | viability, T/C (second compound 0.3 µM, first compound 0.001 µM): 89.2% | viability, T/C (second compound 0.3 µM, first compound 0.00316 µM): 96.3% | viability, T/C (second compound 0.3 µM, first compound 0.01 µM): 73.2% | viability, T/C [31]: 71.6% | viability, T/C [32]: 57.3%

IC50 (second compound 0.000949 µM): > 10 µM | IC50 (second compound 0.003 µM): > 10 µM | IC50 (second compound 0.00949 µM): > 10 µM | IC50 (second compound 0.03 µM): > 10 µM | IC50 (second compound 0.0949 µM): > 10 µM | IC50 (second compound 0.3 µM): > 10 µM
Structure (SMILES): CC(Nc1ccc2c(c1)OCCn1cc(N3C(=O)OCC3C(F)F)nc1-2)C(N)=O (stereo not drawn) + CCn1c(-c2cccnc2C(C)OC)c2c3cc(ccc31)N1CCOC(CC(NC(=O)C(C(C)C)N(C)C(=O)C3(F)CCN(C(=O)C#CC(C)(C)N(C)C)CC3)C(=O)N3CCCC(N3)C(=O)OCC(C)(C)C2)C1
viability, T/C [1]: 97.3% | viability, T/C [2]: 101% | viability, T/C [3]: 86.2% | viability, T/C [4]: 88.7% | viability, T/C [5]: 109% | viability, T/C [6]: 80.8% | viability, T/C [7]: 99.8% | viability, T/C [8]: 97.7% | viability, T/C [9]: 86.9% | viability, T/C [10]: 94.4% | viability, T/C [11]: 97.5% | viability, T/C [12]: 78.1% | viability, T/C [13]: 118% | viability, T/C [14]: 85.9% | viability, T/C [15]: 84% | viability, T/C [16]: 104% | viability, T/C [17]: 86.3% | viability, T/C [18]: 76.3% | viability, T/C [19]: 83.7% | viability, T/C [20]: 83.8% | viability, T/C [21]: 86.5% | viability, T/C [22]: 98.5% | viability, T/C [23]: 110% | viability, T/C [24]: 75.2% | viability, T/C [25]: 102% | viability, T/C [26]: 113% | viability, T/C [27]: 78.8% | viability, T/C [28]: 88.8% | viability, T/C [29]: 96.2% | viability, T/C [30]: 74.8% | viability, T/C [31]: 84.7% | viability, T/C [32]: 85.5% | viability, T/C [33]: 96.7% | viability, T/C [34]: 98.5% | viability, T/C [35]: 92.2% | viability, T/C [36]: 82.7%

IC50 (second compound 0.000949 µM): > 10 µM | IC50 (second compound 0.003 µM): > 10 µM | IC50 (second compound 0.00949 µM): > 10 µM | IC50 (second compound 0.03 µM): > 10 µM | IC50 (second compound 0.0949 µM): > 10 µM | IC50 (second compound 0.3 µM): > 10 µM
Structure (SMILES): C[C@@H](NC(=O)c1ncnc(N)c1Cl)c1ncc(C(=O)Nc2cc(C(F)(F)F)c(Cl)cn2)s1 + CCn1c(-c2cccnc2C(C)OC)c2c3cc(ccc31)N1CCOC(CC(NC(=O)C(C(C)C)N(C)C(=O)C3(F)CCN(C(=O)C#CC(C)(C)N(C)C)CC3)C(=O)N3CCCC(N3)C(=O)OCC(C)(C)C2)C1
viability, T/C [1]: 111% | viability, T/C [2]: 118% | viability, T/C [3]: 119% | viability, T/C [4]: 90.6% | viability, T/C [5]: 80.8% | viability, T/C [6]: 64.5% | viability, T/C [7]: 112% | viability, T/C [8]: 92.7% | viability, T/C [9]: 99.8% | viability, T/C [10]: 82.1% | viability, T/C [11]: 63.6% | viability, T/C [12]: 57.3% | viability, T/C [13]: 93.7% | viability, T/C [14]: 89% | viability, T/C [15]: 78.5% | viability, T/C [16]: 109% | viability, T/C [17]: 70.1% | viability, T/C [18]: 58.9% | viability, T/C [19]: 92.8% | viability, T/C [20]: 117% | viability, T/C [21]: 91% | viability, T/C [22]: 84.3% | viability, T/C [23]: 75.8% | viability, T/C [24]: 81.1% | viability, T/C [25]: 83.2% | viability, T/C [26]: 93.6% | viability, T/C [27]: 76.5% | viability, T/C [28]: 73.1% | viability, T/C [29]: 71.8% | viability, T/C [30]: 71.3% | viability, T/C [31]: 80.7% | viability, T/C [32]: 99.1% | viability, T/C [33]: 96.8% | viability, T/C [34]: 86.2% | viability, T/C [35]: 81.4% | viability, T/C [36]: 66.9%
